Results: ChEMBL document CHEMBL1201862, “PubChem BioAssay data set” (2004)
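Where inhibition never reached the appropriate level, the endpoint shown equals the highest concentration tested. Otherwise, values were interpolated linearly from a five-concentration, 48-hour dose response in 96-well plates. The concentration for 50% growth inhibition is given as GI50.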 The source made the active and inactive calls. Rule as the data show it: active = GI50 up to about 1.1 µM and inactive = higher.

Assays:
Assay in all cases: inhibition of tumour cell growth, NCI panel, 48 h
[1] = tested on: 786-0
[2] = tested on: ACHN
[3] = tested on: CAKI-1
[4] = tested on: DU-145
[5] = tested on: EKVX
[6] = tested on: HCT-15
[7] = tested on: HL-60
[8] = tested on: Hs-578T
[9] = tested on: K562
[10] = tested on: KM12
[11] = tested on: MDA-MB-435
[12] = tested on: MDA-N
[13] = tested on: MOLT-4
[14] = tested on: NCI/ADR-RES
[15] = tested on: OVCAR-8
[16] = tested on: SK-MEL-2
[17] = tested on: SK-MEL-5
[18] = tested on: SNB-19
[19] = tested on: UACC-257
[20] = tested on: UO-31

Measured: GI50

c1ccc(NCCSc2nc3ccccc3s2)cc1
inactive: [1] 37.6 µM | [2] 43.8 µM | [3] 93.1 µM | [4] 97.1 µM | [5] 29.5 µM | [7] 32.1 µM | [8] > 100 µM | [9] 34 µM | [10] 30.9 µM | [11] 43.3 µM | [12] 36.9 µM | [13] 24.9 µM | [14] 35.9 µM | [15] 79.1 µM | [16] 30.8 µM | [17] 21.5 µM | [18] > 100 µM | [19] 22.1 µM | [20] 35 µM
18 µM: [6]

CC(=O)C(CN1CCCCC1)C(c1ccccc1)c1c(O)c2ccccc2oc1=O (stereo not given)
> 100 µM: [6]
inactive: [1] > 100 µM | [2] > 100 µM | [3] > 100 µM | [4] > 100 µM | [5] > 100 µM | [7] 59.4 µM | [8] > 100 µM | [9] > 100 µM | [10] > 100 µM | [11] > 100 µM | [12] > 100 µM | [13] > 100 µM | [14] > 100 µM | [15] > 100 µM | [16] > 100 µM | [17] > 100 µM | [18] > 100 µM | [19] > 100 µM | [20] > 100 µM

CC(=O)O[C@H]1C(=O)[C@@]2(C)[C@H]([C@H](OC(=O)c3ccccc3)[C@@]3(O)C[C@H](O)C(C)=C1C3(C)C)[C@]1(OC(C)=O)CO[C@@H]1C[C@@H]2O
53.3 µM: [6]
inactive: [1] 51.5 µM | [2] > 100 µM | [3] > 100 µM | [4] 34.7 µM | [5] > 100 µM | [7] 61.9 µM | [8] 19 µM | [9] 55.8 µM | [10] 15.2 µM | [11] 11.9 µM | [12] 4.55 µM | [13] 73.3 µM | [14] > 100 µM | [15] 31.2 µM | [16] 46.9 µM | [17] 35.8 µM | [18] 69.3 µM | [19] 83.6 µM | [20] 82 µM
